# The source made the active and inactive calls. The calls are words filed in the database; no cut-off is given here.
# What was measured:
# Escherichia coli [1] = assay: Minimum inhibitory concentration against Escherichia coli (ATCC 25922); format: functional
# Staphylococcus aureus [2] = assay: Minimum inhibitory concentration against Staphylococcus aureus (ATCC 25923); format: functional
# Staphylococcus aureus [3] = assay: Minimum inhibitory concentration against Staphylococcus aureus (ATCC 25923); inactive; format: functional, organism-based
# Escherichia coli [4] = assay: Minimum inhibitory concentration against Escherichia coli (ATCC 25922); inactive; format: functional, organism-based
# [5] = Escherichia coli, ATCC 25922, read-out: MIC
# [6] = Staphylococcus aureus, ATCC 25923, read-out: MIC
SMILES,MIC (Escherichia coli [1]; [5]),MIC (Staphylococcus aureus [2]; [6]),MIC (Escherichia coli [1]),MIC (Staphylococcus aureus [2]),MIC (Staphylococcus aureus [3]),MIC (Escherichia coli [4])
CC1OC(OC2C(N)CC(N)C(OC3OC(CN)C(O)C(O)C3N)C2O)C(O)C(O)C1OC[C@@H](O)CN (some centres undefined),4 µg/mL,4 µg/mL,–,–,–,–
CC1OC(OC2C(N)CC(N)C(OC3OC(CN)C(O)C(O)C3N)C2O)C(O)C(O)C1OC[C@@H](N)CN (some centres undefined),8 µg/mL,8 µg/mL,–,–,–,–
CC1OC(OC2C(N)CC(N)C(OC3OC(CN)C(O)C(O)C3N)C2O)C(O)C(N)C1O (centres undefined),2 µg/mL,2 µg/mL,–,–,–,–
NC[C@H]1O[C@H](O[C@H]2[C@H](O)[C@@H](O[C@H]3O[C@H](CO)[C@@H](O)[C@H](N)[C@H]3O)[C@H](N)C[C@@H]2N)[C@H](N)[C@@H](O)[C@@H]1O [BEKANAMYCIN],2 µg/mL,2 µg/mL,4 µg/mL,1 µg/mL,–,–
CC1OC(OC2C(N)CC(N)C(OC3OC(CN)C(O)C(O)C3N)C2O)C(O)C(O)C1OC[C@H](N)CN (some centres undefined),8 µg/mL,8 µg/mL,–,–,–,–
CC1OC(OC2C(N)CC(N)C(OC3OC(CN)C(O)C(O)C3N)C2O)C(O)C(O)C1O (stereo in doubt) [listing 1 of 2 here],–,–,–,–,inactive,inactive
NCC1OC(OC2C(N)CC(N)C(OC3OCC(O)C(O)C3O)C2O)C(N)C(O)C1O (centres undefined),32 µg/mL,64 µg/mL,–,–,–,–
CC1OC(OC2C(N)CC(N)C(OC3OC(CN)C(O)C(O)C3N)C2O)C(O)C(O)C1OCC(CN)OC[C@H](O)CN (some centres undefined),8 µg/mL,4 µg/mL,–,–,–,–
NC[C@@H]1O[C@H](O[C@H]2[C@H](O)[C@H](O[C@H]3O[C@H](CO)[C@H](O)[C@@H](O)[C@H]3O)[C@H](N)C[C@H]2N)[C@@H](N)[C@@H](O)[C@@H]1O,32 µg/mL,32 µg/mL,–,–,–,–
CC1OC(OC2C(N)CC(N)C(OC3OC(CN)C(O)C(O)C3N)C2O)C(O)C(O)C1O (stereo in doubt) [listing 2 of 2 here],32 µg/mL,16 µg/mL,–,–,–,–
CC1CC(O)C(O)C(OC2C(N)CC(N)C(OC3OC(CN)C(O)C(O)C3N)C2O)O1 (centres undefined),–,–,–,–,inactive,inactive
CC1OC(OC2C(N)CC(N)C(OC3OC(CN)C(O)C(O)C3N)C2O)C(O)C(O)C1OCCCN (centres undefined),4 µg/mL,4 µg/mL,–,–,–,–
CC1OC(OC2C(N)CC(N)C(OC3OC(CN)C(O)C(O)C3N)C2O)C(O)C(O)C1OC[C@H](O)CN (some centres undefined),4 µg/mL,4 µg/mL,–,–,–,–
CC1OC(OC2C(N)CC(N)C(OC3OC(CN)C(O)C(O)C3N)C2O)C(O)C(N)C1OCC(O)CN (centres undefined),4 µg/mL,2 µg/mL,–,–,–,–
CC1OC(OC2C(N)CC(N)C(OC3OC(CN)C(O)C(O)C3N)C2O)C(O)C(O)C1N (centres undefined),12 µg/mL,2 µg/mL,–,–,–,–
CC1OC(OC2C(N)CC(N)C(OC3OC(CN)C(O)C(O)C3N)C2O)C(O)C(O)C1O (stereo in doubt; 23),–,–,–,–,inactive,inactive
